From article PMC10487708, “Chlorin E6-Curcumin-Mediated Photodynamic Therapy Promotes an Anti-Photoaging Effect in UVB-Irradiated Fibroblasts” (International Journal of Molecular Sciences, 2023)

Assay: Ex vivo fluorescence imaging and biodistribution in ICR mice
Conditions: 2.5 mg/kg IV, 3 h post-injection
Method: To confirm the organ-specific signaling intensities of different Ce6-curcumin derivatives, we measured ex-vivo FLI in different organs of ICR mice after 3 h of intravenous drug administration. The drug interval time of 3 h before light irradiation in PDT for Ce6-curcumin derivatives can be explained by the pharmacokinetics and imaging study of Ce6 provided in Figures S1 and S2. Three hours after IV injection of 2.5 mg/kg of Ce6- hexane-curcumin, Ce6-propane-curcumin, and Ce6-diPEG-curcumin, ex-vivo images were obtained. […] Furthermore, the fluorescence intensity of Ce6-curcumin derivatives was highest in organs with a larger blood supply, including the liver and lungs.
(B) Biodistribution of the three Ce6-curcumin derivatives in the organ lysates after 3 h post-injection. The quantitation of fluorescence signals of Ce6 derivatives has been represented as a bar. Data were represented as mean ± SD from at least three independent experiments and were analyzed by one-way ANOVA with Tukey’s post hoc test: * p < 0.01, compared with vehicle-treated control of the spleen, ^# p < 0.01, compared with vehicle-treated control of the lungs, ^& p < 0.01, compared with vehicle-treated control of the liver.
Biodistribution analysis for Ce6 and Ce6-curcumin derivatives was calculated by measuring tissue fluorescence. […] The fluorescence intensity was normalized to the tissue weight.

ex vivo fluorescence signal in organs: highest fluorescence
Compound: C=Cc1c(C)c2cc3nc(c(CC(=O)OC)c4[nH]c(cc5nc(cc1[nH]2)C(C)=C5CC)c(C)c4C(=O)NCCCOCCOCCOCCCNC(=O)CCCC(=O)Oc1ccc(/C=C/C(=O)CC(=O)/C=C/c2ccc(O)c(OC)c2)cc1OC)C(CCC(=O)OC)C3C (stereo not shown) [Ce6-diPEG-curcumin]
